Data published in the supplement of paper PMC8253809.

System: HGGX6 (H3.3 G34R paediatric high-grade glioma line)
Experiment: growth inhibition relative to DMSO (0) and positive control (1) (fraction); higher = more growth inhibition
Procedure, shortened: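 Single-agent values are the one-drug arms of the two-drug matrix plates, on which pHGG lines and astrocytes grew on Geltrex-coated 384-well plates for 7 days of treatment in two plate orientations. CellTiter-Glo signal was set to solvent wells as 0 and positive-control wells as 1, with no log2 transformation. The resulting fractional activity was fitted by response-surface synergy modelling.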

O=C(NOC[C@H](O)CO)c1ccc(F)c(F)c1Nc1ccc(I)cc1F + CC1(C)OCCn2c1nc1c(N3CCOCC3)nc(-c3cnc(N)nc3)nc12 [GDC0084]
growth inhibition
Details	compound 1 concentration 0.009766 µM	compound 1 concentration 0.01953 µM	compound 1 concentration 0.03906 µM	compound 1 concentration 0.07812 µM	compound 1 concentration 0.15625 µM	compound 1 concentration 0.3125 µM	compound 1 concentration 0.625 µM	compound 1 concentration 1.25 µM	compound 1 concentration 5 µM	compound 1 concentration 20 µM
compound 2 concentration 0.03906 µM	-0.0587	-0.133	-0.0423	-0.0209	0.0525	0.0544	0.136	0.172	0.433	0.608
compound 2 concentration 0.07812 µM	0.159	0.159	0.235	0.123	0.215	0.239	0.175	0.334	0.493	0.707
compound 2 concentration 0.15625 µM	0.0791	0.129	0.0602	0.134	0.0901	0.167	0.22	0.321	0.536	0.68
compound 2 concentration 0.3125 µM	0.217	0.19	0.195	0.14	0.172	0.319	0.322	0.391	0.572	0.713
compound 2 concentration 0.625 µM	0.371	0.37	0.329	0.373	0.258	0.373	0.432	0.457	0.633	0.748
compound 2 concentration 1.25 µM	0.572	0.523	0.53	0.483	0.467	0.501	0.53	0.544	0.679	0.799
compound 2 concentration 5 µM	0.709	0.727	0.714	0.72	0.705	0.725	0.719	0.747	0.798	0.86
compound 2 concentration 20 µM	0.867	0.859	0.851	0.861	0.86	0.852	0.866	0.859	0.887	0.947

CC1(C)OCCn2c1nc1c(N3CCOCC3)nc(-c3cnc(N)nc3)nc12 [GDC0084] + O=C(NOC[C@H](O)CO)c1ccc(F)c(F)c1Nc1ccc(I)cc1F [PD0325901]
growth inhibition
Details	compound 1 concentration 0.009766 µM	compound 1 concentration 0.01953 µM	compound 1 concentration 0.03906 µM	compound 1 concentration 0.07812 µM	compound 1 concentration 0.15625 µM	compound 1 concentration 0.3125 µM	compound 1 concentration 0.625 µM	compound 1 concentration 1.25 µM	compound 1 concentration 5 µM	compound 1 concentration 20 µM
compound 2 concentration 0.03906 µM	-0.0592	-0.118	-0.0557	0.0473	0.0152	0.16	0.251	0.451	0.708	0.857
compound 2 concentration 0.07812 µM	0.064	-0.018	-0.00542	0.0583	0.162	0.132	0.254	0.475	0.717	0.883
compound 2 concentration 0.15625 µM	0.0118	0.0255	-0.000602	0.014	0.0815	0.2	0.302	0.466	0.711	0.857
compound 2 concentration 0.3125 µM	0.0282	0.112	0.0905	0.102	0.124	0.205	0.31	0.505	0.707	0.865
compound 2 concentration 0.625 µM	0.155	0.263	0.16	0.217	0.212	0.336	0.371	0.511	0.733	0.849
compound 2 concentration 1.25 µM	0.226	0.235	0.284	0.245	0.295	0.368	0.424	0.564	0.776	0.841
compound 2 concentration 5 µM	0.429	0.43	0.452	0.47	0.569	0.626	0.645	0.728	0.796	0.901
compound 2 concentration 20 µM	0.595	0.612	0.628	0.661	0.667	0.729	0.762	0.814	0.871	0.94
